Measured values taken from patent US10087216B2 (priority 2014, dated 2018).

Test system: potassium ion channel current of the DRG neurons
Experiment: cells
Type: cell-based, SD rats

What does the source list for `Nc1ccncc1` [4AP, 4-aminopyridine]?
Current recorded after loading (5 mM): 0.9766 nA; inhibition at 5000 µM (Rattus norvegicus, DRG neuron, read-out: Current inhibition rate): 33.8%
